Converted amounts (≈) assume the structure as drawn.
Assay: Solubility of the active substance in organic solvents
Assay type: physicochemical
Settings: dmso and n-methylpyrrolidone, organic solvent or mixture; in Dimethylsulfoxid und N-Methylpyrrolidon; Gewicht-pro-Volumen-Prozent; read-out: Solubility (lösen)
Text: Injizierbare Zubereitungen stellen wegen der sehr genauen Dosierbarkeit auch kleiner Wirkstoffmengen, der leichten Anwendbarkeit und der geringfügigen Beunruhigung der zu behandelnden Tiere, insbesondere grösserer Nutztiere, wie beispielsweise Rinder, Schafe, Pferde und Esel, oftmals die günstigste Applikationsart dar. Bei der Verwendung von schwerlöslichen Substanzen wie insbesondere den Benzoylphenylharnstoffen in Form injizierbarer Formulierungen ergeben sich jedoch Probleme, wenn mit ihnen ein wirksamer Plasmaspiegel, d.h., eine gleichmässige Verteilung einer ausreichenden Wirkstoffmenge im Plasma, erreicht werden soll, weil das injizierte Material von der Gewebsflüssigkeit beeinflusst wird und damit beispielsweise die physikalisch-chemischen Eigenschaften besagten Materials so verändert werden können, dass ein erheblicher Anteil des injizierten Materials sehr rasch kristallisiert und dadurch an der Injektionsstelle oder in sehr naher Umgebung davon verbleibt. So lassen sich Benzoylharnstoffe, beispielsweise N-[3-(3-Chlor-5-trifluormethylpyridyl-2-oxy)-4-chlorphenyl]-N'-[2,6-difluorbenzoyl]-hamstoff, in Dimethylsulfoxid und N-Methylpyrrolidon (etwa 35 %, Prozentangaben bedeuten hier und im folgenden Gewichtpro-Volumen-Prozent) lösen. […]

With `O=C(NC(=O)c1c(F)cccc1F)Nc1ccc(Cl)c(Oc2ncc(C(F)(F)F)cc2Cl)c1` [N-[3-(3-Chlor-5-trifluormethylpyridyl-2-oxy)-4-chlorphenyl]-N'-[2,6-difluorbenzoyl]-harnstoff] the solubility was ~350 mg/mL (≈ 691 mM).
